Data as given in patent US9469631B2 (Boehringer Ingelheim International GmbH, priority 2012, dated 2016).

Biological target: human GPR119 (Homo sapiens (Human), UniProt Q8TDV5)
Experiment: AlphaScreen cAMP assay in MIN6 cells stably transfected with human GPR119
Assay type: cell-based
Settings: Min-6/hGPR119 cells, 45 min incubation at room temperature
Description: The compounds of formula I according to the invention modulate the activity of the G-protein-coupled receptor GPR119. The effect of the compounds on the activation of GPR119 and on the stimulation of intracellular cAMP concentration is determined using the AlphaScreen cAMP Assay Kit (Cat. No. #6760625R) made by PerkinElmer.
MIN6 cells [Miyazaki J et al. Endocrinology. 1990 July; 127(1):126-32] are stably transfected with an expression vector for human GPR119 cDNA (Acc. No. NP_848566). Min-6/hGPR119 cells are cultured in DMEM, 10% FBS, 50 μM β-mercaptoethanol, 0.3 mg/mL Geniticin, 2 mM GlutaMAX at 37° C. 5% CO2. For the assay, the cells are seeded in Optiplates (white, 384-well, 160W-barcoded, TC, sterile with lid, Cat. No. #6007688 (Perkin Elmer); 10000 cells/well; 50 μl). The plates covered with lids are then incubated for 24 hours at 37° C./5% CO2. After the medium is aspirated from the wells completely, 10 μl of the test compound are added, the compounds are diluted using stimulating buffer (140 mM NaCl, 3.6 mM KCl, 0.5 mM NaH2PO4, 0.5 mM MgSO4, 1.5 mM CaCl2, 10 mM Hepes, 5 mM NaHCO3; pH 7.4. 0.5 mM IBMX and 0.1% BSA, the final DMSO concentration is 1%). After 45 minutes incubation at room temperature (approx. 20° C.), the cAMP concentrations are determined using the AlphaScreen cAMP Assay Kit (Cat. No. #6760625R from PerkinElmer).

Sequence of human GPR119 (Q8TDV5 whole entry): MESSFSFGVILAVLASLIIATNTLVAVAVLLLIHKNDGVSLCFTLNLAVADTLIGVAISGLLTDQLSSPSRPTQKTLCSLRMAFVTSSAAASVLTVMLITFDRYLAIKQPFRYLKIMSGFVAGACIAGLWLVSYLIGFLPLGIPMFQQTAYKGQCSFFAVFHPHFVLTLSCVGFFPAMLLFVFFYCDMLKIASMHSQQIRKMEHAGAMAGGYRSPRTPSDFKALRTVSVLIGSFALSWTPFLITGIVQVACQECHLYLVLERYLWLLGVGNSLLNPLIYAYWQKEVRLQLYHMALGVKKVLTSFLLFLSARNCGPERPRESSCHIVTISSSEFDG

Row | EC50 | Compound
1 | 49 nM | CC(C)OC(=O)N1CCC(N(C(=O)c2ccc(-c3ccncc3C#N)cc2)C2CC2)CC1 [Example 31, 4-{[4-(3-Cyano-pyridin-4-yl)-benzoyl]-cyclopropyl-amino}-piperidine-1-carboxylic acid isopropyl ester]
2 | 291 nM | Cc1c(-c2ccccc2)ncn1-c1ccc(C(=O)N(C2CC2)C2CCN(C(=O)OC(C)(C)C)CC2)cc1 [Example 83, 4-{Cyclopropyl-[4-(5-methyl-4-phenyl-imidazol-1-yl)-benzoyl]-amino}-piperidine-1-carboxylic acid tert-butyl ester]
3 | 44 nM | CC(C)(C)OC(=O)N1CCC(N(C(=O)c2ccc(-c3ccc(S(C)(=O)=O)cc3F)cc2)C2CC2)CC1 [Example 110, 4-[Cyclopropyl-(2′-fluoro-4′-methanesulfonyl-biphenyl-4-carbonyl)-amino]-piperidine-1-carboxylic acid tert-butyl ester]
4 | 137 nM | CC(C)(C)OC(=O)N1CCC(N(C(=O)c2ccc(-n3cnnn3)cc2)C2CC2)CC1 [Example 22, 4-[Cyclopropyl-(4-tetrazol-1-yl-benzoyl)-amino]-piperidine-1-carboxylic acid tert-butyl ester]
5 | 516 nM | O=C(OC1CCOCC1)N1CCC(N(C(=O)c2ccc(-c3cnco3)cc2)C2CC2)CC1 [Example 11, 4-[Cyclopropyl-(4-oxazol-5-yl-benzoyl)-amino]-piperidine-1-carboxylic acid tetrahydro-pyran-4-yl ester]
6 | 2 nM | CC(C)(C)OC(=O)N1CC[C@H](N(C(=O)c2ccc(-c3cnco3)cc2)C2CC2)[C@H](F)C1 (single isomer, unassigned) [Example 40]
7 | 634 nM | CC(C)(C)OC(=O)N1CC[C@@H](N(C(=O)c2ccc(-c3cnco3)cc2)C2CC2)[C@H](F)C1 (single isomer, unassigned) [Example 39]
8 | 169 nM | CC(C)(C)OC(=O)N1CCC(N(C(=O)c2ccc(-c3cnco3)c(N)c2)C2CC2)CC1 [Example 8, 4-[(3-Amino-4-oxazol-5-yl-benzoyl)-cyclopropyl-amino]-piperidine-1-carboxylic acid tert-butyl ester]
9 | 127 nM | CC(C)(C)OC(=O)N1CCC(N(C(=O)c2ccc(-c3ccc(N4CCOCC4)cc3)cc2)C2CC2)CC1 [Example 101, 4-[Cyclopropyl-(4′-morpholin-4-yl-biphenyl-4-carbonyl)-amino]-piperidine-1-carboxylic acid tert-butyl ester]
10 | 24 nM | CC(C)(C)OC(=O)N1CCC(N(C(=O)c2ccc(-c3ccc(C#N)s3)cc2)C2CC2)CC1 [Example 89, 4-{[4-(5-Cyano-thiophen-2-yl)-benzoyl]-cyclopropyl-amino}-piperidine-1-carboxylic acid tert-butyl ester]
11 | 650 nM | COc1cc(C(=O)N(C2CC2)C2CCN(C(=O)OC(C)(C)C)CC2)ccc1-c1cnco1 [Example 9, 4-[Cyclopropyl-(3-methoxy-4-oxazol-5-yl-benzoyl)-amino]-piperidine-1-carboxylic acid tert-butyl ester]
12 | 30 nM | CC(C)(C)OC(=O)N1CC[C@@H](N(C(=O)c2ccc(-c3cnco3)cc2)C2CC2)[C@@H](F)C1 (single isomer, unassigned) [Example 41]
13 | 89 nM | O=C(Oc1ccc(F)cc1)N1CCC(N(C(=O)c2ccc(-c3cnco3)cc2)C2CC2)CC1 [Example 119, 4-[Cyclopropyl-(4-oxazol-5-yl-benzoyl)-amino]-piperidine-1-carboxylic acid 4-fluoro-phenyl ester]
14 | 157 nM | CC1CC(N(C(=O)c2ccc(-c3cnco3)cc2)C2CC2)CCN1C(=O)OC(C)(C)C (centres unmarked) [Example 1, 4-[Cyclopropyl-(4-oxazol-5-yl-benzoyl)-amino]-2-methyl-piperidine-1-carboxylic acid tert-butyl ester]
15 | 219 nM | CC(C)(C)OC(=O)N1CCC(N(C(=O)c2c(F)cc(-c3cnco3)cc2F)C2CC2)CC1 [Example 36, 4-[Cyclopropyl-(2,6-difluoro-4-oxazol-5-yl-benzoyl)-amino]-piperidine-1-carboxylic acid tert-butyl ester]
16 | 78 nM | CC(C)(C)OC(=O)N1CCC(N(C(=O)c2ccc(-c3cnco3)c([N+](=O)[O-])c2)C2CC2)CC1 [Example 7, 4-[Cyclopropyl-(3-nitro-4-oxazol-5-yl-benzoyl)-amino]-piperidine-1-carboxylic acid tert-butyl ester]

Row | EC50 | Compound
17 | 423 nM | Cn1cc(-c2ccc(C(=O)N(C3CC3)C3CCN(C(=O)OC(C)(C)C)CC3)cc2)cn1 [Example 13]
18 | 1080 nM | O=C(OCC1CCOCC1)N1CCC(N(C(=O)c2ccc(-c3cnco3)cc2)C2CC2)CC1 [Example 14, 4-[Cyclopropyl-(4-oxazol-5-yl-benzoyl)-amino]-piperidine-1-carboxylic acid tetrahydro-pyran-4-ylmethyl ester]
19 | 224 nM | Cc1nnnn1-c1ccc(C(=O)N(C2CC2)C2CCN(C(=O)OC(C)(C)C)CC2)cc1 [Example 26, 4-{Cyclopropyl-[4-(5-methyl-tetrazol-1-yl)-benzoyl]-amino}-piperidine-1-carboxylic acid tert-butyl ester]
20 | 347 nM | Cc1noc(-c2ccc(C(=O)N(C3CC3)C3CCN(C(=O)OC(C)(C)C)CC3)cc2)n1 [Example 60, 4-{Cyclopropyl-[4-(3-methyl-[1,2,4]oxadiazol-5-yl)-benzoyl]-amino}-piperidine-1-carboxylic acid tert-butyl ester]
21 | 500 nM | CNC(=O)Nc1nc(-c2ccc(C(=O)N(C3CC3)C3CCN(C(=O)OC(C)(C)C)CC3)cc2)ns1 [Example 73, 4-(Cyclopropyl-{4-[5-(3-methyl-ureido)-[1,2,4]thiadiazol-3-yl]-benzoyl}-amino)-piperidine-1-carboxylic acid tert-butyl ester]
22 | 32 nM | CC(C)(C)OC(=O)N1CCC(N(C(=O)c2ccc(-c3cncs3)cc2)C2CC2)CC1 [Example 6, 4-[Cyclopropyl-(4-thiazol-5-yl-benzoyl)-amino]-piperidine-1-carboxylic acid tert-butyl ester]
23 | 152 nM | Cn1cncc1-c1ccc(C(=O)N(C2CC2)C2CCN(C(=O)OC(C)(C)C)CC2)cc1 [Example 42, 4-{Cyclopropyl-[4-(3-methyl-3H-imidazol-4-yl)-benzoyl]-amino}-piperidine-1-carboxylic acid tert-butyl ester]
24 | 333 nM | CC(=O)NCc1ccc(-c2ccc(C(=O)N(C3CC3)C3CCN(C(=O)OC(C)(C)C)CC3)cc2)cc1 [Example 104, 4-{[4′-(Acetylamino-methyl)-biphenyl-4-carbonyl]-cyclopropyl-amino}-piperidine-1-carboxylic acid tert-butyl ester]
25 | 115 nM | CC(C)(C)OC(=O)N1CCC(N(C(=O)c2ccc(-c3ccc(S(N)(=O)=O)cc3)cc2)C2CC2)CC1 [Example 105, 4-[Cyclopropyl-(4′-sulfamoyl-biphenyl-4-carbonyl)-amino]-piperidine-1-carboxylic acid tert-butyl ester]
26 | 55 nM | COc1ncc(-c2ccc(C(=O)N(C3CC3)C3CCN(C(=O)OC(C)(C)C)CC3)cc2)cn1 [Example 99, 4-{Cyclopropyl-[4-(2-methoxy-pyrimidin-5-yl)-benzoyl]-amino}-piperidine-1-carboxylic acid tert-butyl ester]
27 | 875 nM | CC(C)(C)OC(=O)N1CCC(N(C(=O)c2ccc(-c3nnc(N)s3)cc2)C2CC2)CC1 [Example 66, 4-{[4-(5-Amino-[1,3,4]thiadiazol-2-yl)-benzoyl]-cyclopropyl-amino}-piperidine-1-carboxylic acid tert-butyl ester]
28 | 86 nM | CC(C)(C)OC(=O)N1CCC(N(C(=O)c2ccc(-c3ccc(CC#N)cc3)cc2)C2CC2)CC1 [Example 91, 4-[(4′-Cyanomethyl-biphenyl-4-carbonyl)-cyclopropyl-amino]-piperidine-1-carboxylic acid tert-butyl ester]
29 | 158 nM | CC(C)(C)OC(=O)N1CCC(N(C(=O)c2ccc(-c3cncnc3)cc2)C2CC2)CC1 [Example 69, 4-[Cyclopropyl-(4-pyrimidin-5-yl-benzoyl)-amino]-piperidine-1-carboxylic acid tert-butyl ester]
30 | 637 nM | CC(C)(C)OC(=O)N1CCC(N(C(=O)c2ccc(-n3cccn3)cc2)C2CC2)CC1 [Example 71, 4-[Cyclopropyl-(4-pyrazol-1-yl-benzoyl)-amino]-piperidine-1-carboxylic acid tert-butyl ester]
31 | 41 nM | CC(C)(C)OC(=O)N1CCC(N(C(=O)c2ccc(-c3ccncc3)cc2)C2CC2)CC1 [Example 70, 4-[Cyclopropyl-(4-pyridin-4-yl-benzoyl)-amino]-piperidine-1-carboxylic acid tert-butyl ester]
32 | 651 nM | CC(C)(C)OC(=O)N1CCC(N(C(=O)c2ccc(-c3cccnc3)cc2)C2CC2)CC1 [Example 75, 4-[Cyclopropyl-(4-pyridin-3-yl-benzoyl)-amino]-piperidine-1-carboxylic acid tert-butyl ester]
